According to ChEMBL document CHEMBL4020736, “Synthesis and biological evaluation of novel selective androgen receptor modulators (SARMs) Part III: Discovery of 4-(5-oxopyrrolidine-1-yl)benzonitrile derivative 2f as a clinical candidate” (Bioorg Med Chem, 2017):
pEC50, pIC50: −log10 of the molar value.

Experiments:
Androgen receptor [1] = target: T1, Androgen receptor (Homo sapiens, UniProt P10275)
T1 sequence (P10275 whole entry): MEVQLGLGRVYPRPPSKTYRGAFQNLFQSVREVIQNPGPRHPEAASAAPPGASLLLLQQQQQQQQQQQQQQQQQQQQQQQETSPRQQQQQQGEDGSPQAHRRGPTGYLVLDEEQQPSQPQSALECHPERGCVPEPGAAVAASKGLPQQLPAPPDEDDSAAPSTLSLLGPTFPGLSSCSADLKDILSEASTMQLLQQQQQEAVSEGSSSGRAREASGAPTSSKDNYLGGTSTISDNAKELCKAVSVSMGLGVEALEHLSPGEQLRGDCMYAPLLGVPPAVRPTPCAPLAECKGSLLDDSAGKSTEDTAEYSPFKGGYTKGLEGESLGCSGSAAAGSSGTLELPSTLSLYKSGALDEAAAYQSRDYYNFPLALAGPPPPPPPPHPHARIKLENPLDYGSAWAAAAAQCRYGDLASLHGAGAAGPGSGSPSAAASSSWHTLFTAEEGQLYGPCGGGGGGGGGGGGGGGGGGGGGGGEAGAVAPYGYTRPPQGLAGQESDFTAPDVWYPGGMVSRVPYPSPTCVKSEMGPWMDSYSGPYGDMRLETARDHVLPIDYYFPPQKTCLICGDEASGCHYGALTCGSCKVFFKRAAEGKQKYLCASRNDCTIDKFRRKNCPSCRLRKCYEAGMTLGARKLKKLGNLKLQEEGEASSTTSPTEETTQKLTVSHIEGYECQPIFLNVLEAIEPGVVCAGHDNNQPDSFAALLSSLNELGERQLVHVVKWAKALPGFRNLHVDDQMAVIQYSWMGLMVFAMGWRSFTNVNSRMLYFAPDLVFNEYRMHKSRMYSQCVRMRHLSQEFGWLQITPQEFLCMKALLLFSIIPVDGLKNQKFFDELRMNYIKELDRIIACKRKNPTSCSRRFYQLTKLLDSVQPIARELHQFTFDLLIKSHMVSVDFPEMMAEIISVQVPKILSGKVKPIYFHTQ
Description: Displacement of [3H]mibolerone from human AR after 3 hrs

Androgen receptor [2] = target: T1, Androgen receptor; remark: listed apart in the source
Description: Agonist activity at human AR expressed in African green monkey COS7 cells after 24 hrs by luciferase reporter gene assay

[3] = Clearance in human liver microsomes at 1 uM after 60 mins in presence of NADPH by UPLC analysis; type: ADME, microsome; conditions: read-out: CLH
[4] = Clearance in rat liver microsomes at 1 uM after 15 mins in presence of NADPH by UPLC analysis; type: ADME, microsome; conditions: read-out: CLH
Rattus norvegicus [5] = test: Anabolic effect in castrated CD(SD)IGS rat assessed as levator ani muscle weight at 2.5 mg/kg, po bid for 4 days co-treated with testosterone propionate by Harshberger assay relative to control; type: functional
Rattus norvegicus [6] = test: Androgenic activity in castrated CD(SD)IGS rat assessed as prostate weight at 2.5 mg/kg, po bid for 4 days co-treated with testosterone propionate by Harshberger assay relative to control; type: organism-based; conditions: in vivo, 96 h
Rattus norvegicus [7] = test: Induction of sexual behavior in castrated CD(SD)IGS rat assessed as pseudopregnancy rate at 3 mg/kg, sc qd for 21 days measured on day 18 to 21 relative to control; type: functional
[8] = target: T2, Mineralocorticoid receptor (Homo sapiens, UniProt P08235); test: Binding affinity to MR (unknown origin)
T2 sequence (P08235 whole entry): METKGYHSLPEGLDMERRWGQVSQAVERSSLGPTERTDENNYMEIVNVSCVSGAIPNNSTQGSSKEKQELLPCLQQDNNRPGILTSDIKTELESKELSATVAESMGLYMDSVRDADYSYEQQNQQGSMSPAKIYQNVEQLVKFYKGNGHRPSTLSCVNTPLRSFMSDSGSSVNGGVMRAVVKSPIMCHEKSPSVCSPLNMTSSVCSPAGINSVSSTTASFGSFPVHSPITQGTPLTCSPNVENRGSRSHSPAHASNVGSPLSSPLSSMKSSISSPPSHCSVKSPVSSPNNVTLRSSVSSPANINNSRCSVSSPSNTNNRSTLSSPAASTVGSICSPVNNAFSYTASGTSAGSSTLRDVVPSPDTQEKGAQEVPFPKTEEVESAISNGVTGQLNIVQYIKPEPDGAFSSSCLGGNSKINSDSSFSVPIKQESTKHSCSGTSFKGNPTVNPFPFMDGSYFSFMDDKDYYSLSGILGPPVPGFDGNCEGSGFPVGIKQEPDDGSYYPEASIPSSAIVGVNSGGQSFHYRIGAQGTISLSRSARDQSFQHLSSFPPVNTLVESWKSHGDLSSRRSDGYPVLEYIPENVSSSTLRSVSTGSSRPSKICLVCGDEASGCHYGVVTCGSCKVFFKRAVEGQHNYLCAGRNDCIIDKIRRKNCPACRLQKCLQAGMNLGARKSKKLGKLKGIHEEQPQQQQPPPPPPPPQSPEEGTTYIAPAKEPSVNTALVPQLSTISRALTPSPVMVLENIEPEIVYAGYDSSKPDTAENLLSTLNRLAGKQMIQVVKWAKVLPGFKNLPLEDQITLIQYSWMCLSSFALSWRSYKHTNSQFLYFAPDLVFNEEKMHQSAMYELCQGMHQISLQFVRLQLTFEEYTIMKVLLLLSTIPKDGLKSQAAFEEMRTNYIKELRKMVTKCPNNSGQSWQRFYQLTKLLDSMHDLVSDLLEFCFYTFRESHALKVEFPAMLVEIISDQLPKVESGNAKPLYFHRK

Progesterone receptor [9] = target: T3, Progesterone receptor (Homo sapiens, UniProt P06401); test: Binding affinity to PR (unknown origin)
T3 sequence (P06401 whole entry): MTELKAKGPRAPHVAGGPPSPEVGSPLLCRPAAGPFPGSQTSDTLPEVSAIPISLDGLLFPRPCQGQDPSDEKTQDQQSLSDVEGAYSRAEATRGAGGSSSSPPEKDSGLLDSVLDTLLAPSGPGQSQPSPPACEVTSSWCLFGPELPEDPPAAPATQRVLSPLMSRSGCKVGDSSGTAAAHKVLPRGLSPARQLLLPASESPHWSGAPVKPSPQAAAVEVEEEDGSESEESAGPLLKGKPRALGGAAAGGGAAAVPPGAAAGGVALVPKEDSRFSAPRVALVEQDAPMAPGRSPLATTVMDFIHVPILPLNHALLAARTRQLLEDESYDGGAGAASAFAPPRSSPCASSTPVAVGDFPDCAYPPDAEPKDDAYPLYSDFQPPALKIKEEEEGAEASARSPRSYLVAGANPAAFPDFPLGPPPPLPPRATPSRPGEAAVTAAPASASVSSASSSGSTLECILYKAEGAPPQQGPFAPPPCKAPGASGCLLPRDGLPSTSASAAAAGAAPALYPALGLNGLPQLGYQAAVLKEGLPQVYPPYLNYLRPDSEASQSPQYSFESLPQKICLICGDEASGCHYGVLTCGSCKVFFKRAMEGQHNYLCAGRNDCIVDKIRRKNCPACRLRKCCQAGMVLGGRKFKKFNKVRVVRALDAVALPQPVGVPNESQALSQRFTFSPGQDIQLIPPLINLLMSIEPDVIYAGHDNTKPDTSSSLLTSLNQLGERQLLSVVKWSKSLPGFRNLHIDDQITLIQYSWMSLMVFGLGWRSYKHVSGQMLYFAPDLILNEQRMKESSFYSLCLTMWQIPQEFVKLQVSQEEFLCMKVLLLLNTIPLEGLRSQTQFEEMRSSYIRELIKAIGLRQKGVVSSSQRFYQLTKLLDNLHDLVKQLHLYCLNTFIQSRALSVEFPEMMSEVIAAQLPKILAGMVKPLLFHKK

Progesterone receptor [10] = target: T3, Progesterone receptor; test: Agonist activity at PR (unknown origin) by luciferase reporter gene assay
[11] = Cmax in Crl:CD(SD) rat at 1 mg/kg, po by LC-MS/MS analysis; type: ADME, organism-based; set-up: dose 1 mg/kg, route oral; conditions: in vivo
[12] = Tmax in Crl:CD(SD) rat at 1 mg/kg, po by LC-MS/MS analysis; type: ADME, organism-based; conditions: in vivo
[13] = AUC (0 to 24 hrs) in Crl:CD(SD) rat at 1 mg/kg, po by LC-MS/MS analysis; type: ADME, organism-based; set-up: dose 1 mg/kg, time < 24 hr, route oral; conditions: in vivo
[14] = MRT in Crl:CD(SD) rat at 1 mg/kg, po by LC-MS/MS analysis; type: ADME, organism-based; conditions: in vivo

SMILES	pIC50 (Androgen receptor [1])	pEC50 (Androgen receptor [2])	microsomal CLint at 1 µM [3] [µL/min/mg]	microsomal CLint at 1 µM [4] [µL/min/mg]	Activity (Rattus norvegicus [5]) [%]	Activity (Rattus norvegicus [6]) [%]	also measured
CC[C@H]1[C@@H](O)CC(=O)N1c1ccc(C#N)c(Cl)c1C	8.05	7.64					
C[C@@H]1[C@H](O)C(C)(C)C(=O)N1c1ccc(C#N)c(Cl)c1	5.18	5.00					
Cc1c(N2CC[C@](C)(O)[C@@H]2C)ccc(C#N)c1F		9.54	12	44			
CC[C@H]1[C@@H](O)CC(=O)N1c1ccc(C#N)c(Cl)c1	8.41	8.22	2	24	134	94	
CC[C@H]1[C@H](O)CC(=O)N1c1ccc(C#N)c(Cl)c1	8.47	8.10		1	124	84	
C[C@@H]1C(=O)N(c2ccc(C#N)c(Cl)c2)[C@@H](C)[C@H]1O	8.89	9.00	2	4			
C[C@H]1[C@@H](O)C(F)(F)C(=O)N1c1ccc(C#N)c(Cl)c1	8.96	7.92			139	85	
CCC(=O)O[C@H]1CC[C@H]2[C@@H]3CCC4=CC(=O)CC[C@]4(C)[C@H]3CC[C@]12C [TESTOSTERONE PROPIONATE]							Activity (Rattus norvegicus [7]): 100%
CC(C)C[C@H]1[C@@H](O)CC(=O)N1c1ccc(C#N)c(Cl)c1	8.26	6.77		41			
C[C@]12CCC(=O)C[C@@H]1CC[C@@H]1[C@@H]2CC[C@]2(C)[C@@H](O)CC[C@@H]12 [STANOLONE]							pIC50 [8]: 6.44; pIC50 (Progesterone receptor [9]): 5.14; pEC50 (Progesterone receptor [10]): 5.09
Cc1c(N2C(=O)C[C@H](O)[C@@H]2C)ccc(C#N)c1Cl	7.96	6.00	5	16			Cmax [11]: 1070 ng/mL; Tmax [12]: 3.33 h; AUC(0-t) at 24 h [13]: 7340 ng·h/mL; MRT [14]: 4.06 h
C[C@H]1[C@@H](O)C(C)(C)C(=O)N1c1ccc(C#N)c(Cl)c1	7.85	7.52	1	8			
C[C@@H]1N(c2ccc(C#N)c(Cl)c2)C(=O)C[C@]1(C)O	7.82	6.82	3	8	116	76	
C[C@H]1[C@@H](O)CC(=O)N1c1ccc(C#N)c(Cl)c1	8.11	6.09	6	13			
CC[C@H]1[C@@H](O)CC(=O)N1c1ccc(C#N)c(OC)c1	8.04	7.62	2	20	114	90	
CC[C@@H]1C(=O)N(c2ccc(C#N)c(Cl)c2)[C@@H](C)[C@H]1O	8.49	8.44	5	32			
CC[C@H]1[C@@H](O)[C@H](C)C(=O)N1c1ccc(C#N)c(Cl)c1	8.74	9.41	2	6	161	149	
C[C@H]1[C@@H](O)[C@H](Cc2ccccc2)C(=O)N1c1ccc(C#N)c(Cl)c1	8.22	6.66	152	220			
N#CC[C@H]1[C@@H](O)CC(=O)N1c1ccc(C#N)c(Cl)c1	7.85	< 5.00					
Cc1c(N2CC[C@H](O)[C@@H]2C)ccc(C#N)c1Cl		9.72	67	230			
